Experiments:
[1] = system: CD4 T cells; settings: immunodominant or cryptic epitope presented by I-A^d; cited from earlier work
[2] = biological target: purified soluble DR1 molecules (Homo sapiens, UniProt P01903+P01911, A100R/D57E/F55L/F60I/F76Y/I96L/L162R/M171V/P40L/Q125E/R42F/V115G/Y59C); format: binding
[3] = system: CD4 T cells; format: cell-based, HLA-DR1 transgenic mice; settings: average of at least 3 independent assays

Row | Sequence | Immune Response [1] | dissociation half-time (t1/2) of DR1:peptide complexes [2] [days] | t1/2 (h) pH 5.3, dissociation of DR1:peptide complexes [2] [h] | Cytokine Spots (number of CD4 T cell recruited per million) [3]
1 | AMKRHGLDNYRGYSL [HEL[11–25]] | Cryptic | – | – | –
2 | ELLVLLENERTLDFHD [HA-440] | – | 14.6 | 350 | 146 spots per million CD4 T cells
3 | HNTNGVTAACSHE [HA[126–138]] | Cryptic | – | – | –
4 | HNVNGVTAACSHE [HA[126–138]T128V] | Dominant | – | – | –
5 | KRNLLWLTGKNGL [HA-162] | – | 3.54 | 85 | 163 spots per million CD4 T cells
6 | MEERKIKVYLPRMKME [OVA[273–288]] | Dominant | – | – | –
7 | SGYAADQKSTQNAINGI [HA-375] | – | 25 | 600 | –

From paper PMC3331894 (Journal of Immunology (Baltimore, Md. : 1950), 2012)
